{"source": "patent US7972386B2", "about": "“Bleaching of substrates” (Conopco, Inc., priority 2005, dated 2011)", "origin": "cited, not measured here", "conditions": "at 20° C."}
{"smiles": "CN1CCN(C)CCN(C)CC1.CN1CCN(C)CCN(C)CC1.F[P-](F)(F)(F)(F)F.F[P-](F)(F)(F)(F)F.O.[Mn+4].[Mn+4].[O-2].[O-2].[O-2]", "note": "[[Mn2O3(Me3-TACN)2](PF6)2•H2O, [Mn2O3(Me3-TACN)2] (PF6)2.H2O]", "values": [{"measurement": "water solubility", "result": 10.8, "unit": "g per litre"}]}
